Laboratory results reported in patent publication US20080096939A1, “Process For Preparation Of Pramipexole By Chiral Chromatography” (priority 2004, published 2008).

Key:
dopamine D-2 = dopamine D-2 (Homo sapiens, UniProt P14416); settings: compared with the R(+) enantiomer; cited from earlier work
[1] = acetonitrile:methanol (81:19)
Source text: Racemic pramipexole was subjected to preparative chromatography using Chiralpak® AD as the stationary phase and acetonitrile:methanol (81:19) as the mobile phase.

Chain of dopamine D-2 (P14416 whole entry): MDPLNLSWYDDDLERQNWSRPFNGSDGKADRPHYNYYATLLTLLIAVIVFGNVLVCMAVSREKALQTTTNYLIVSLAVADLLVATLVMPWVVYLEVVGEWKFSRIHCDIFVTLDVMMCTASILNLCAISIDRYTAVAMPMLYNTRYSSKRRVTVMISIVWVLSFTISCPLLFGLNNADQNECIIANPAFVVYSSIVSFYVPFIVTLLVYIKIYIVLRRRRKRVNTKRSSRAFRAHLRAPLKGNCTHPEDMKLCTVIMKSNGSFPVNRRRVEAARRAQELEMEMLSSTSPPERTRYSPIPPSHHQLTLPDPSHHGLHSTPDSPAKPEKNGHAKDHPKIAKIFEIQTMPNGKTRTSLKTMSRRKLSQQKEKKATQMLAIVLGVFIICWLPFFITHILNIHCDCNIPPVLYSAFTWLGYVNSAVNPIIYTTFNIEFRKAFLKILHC

Structure (SMILES) | dopaminergic activity of the S(−) enantiomer relative to the corresponding R(+) enantiomer (dopamine D-2) | solubility in the mobile phase [1] [mg/mL]
CCCN[C@H]1CCc2nc(N)sc2C1 [Pramipexole, S(−)-2-amino-6-propylamino-4,5,6,7-tetrahydrobenzothiazole] | twice as high | 
CCCNC1CCc2nc(N)sc2C1 (racemic) [Racemic pramipexole, R,S(±)-2-amino-6-propylamino-4,5,6,7-tetrahydrobenzothiazole] |  | > 40
